Reference: patent publication US10954267B2, “Dipeptide comprising a non-proteogenic amino acid” (Novo Nordisk A/S, priority 2011, dated 2021)
Square brackets hold non-standard residues; d marks the D form. Peptide text beside a SMILES is read from it. * marks the point of attachment. Fmoc = O=C(OCC1c2ccccc2-c2ccccc21)*; Aib = CC(C)(N)C(=O)O

Test: Storage stability studies of the dipeptide TFA salt
Assay type: physicochemical
Experimental: Fmoc-His(Trt)-Aib-OH (1 moleq., starting material) was suspended in DCM (1.5 mL/g) and TIPS (1.7 moleq.) was added. Cooled (0-10° C.) TFA (3 mL/g) was added and the mixture was stirred at ambient temperature until the reaction was completed (High-performance liquid chromatography (HPLC) conversion). DME (1 mL/g starting material) and TBME (11 mL/g starting material) was added leading to an increase in temperature. The temperature was slowly allowed to return to room temperature (rt) resulting in precipitation of a white solid. The mixture was stirred for an additional 3 hr and filtered. The precipitate was washed twice with TBME (3 mL/g starting material) and dried overnight in vacuo affording the de-tritylated dipeptide as TFA-salt in 90% yield.

Measured: stability (storage)

CC(C)(NC(=O)[C@H](Cc1c[nH]cn1)NC(=O)OCC1c2ccccc2-c2ccccc21)C(=O)O [Example 1, 2-[(S)-2-(9H-Fluoren-9-ylmethoxycarbonylamino)-3-(1H-imidazol-4-yl)-propanoylamino]-2-methyl-propanoic Acid Trifluoracatate] (Fmoc-His-[Aib]-OH)
more than 24 month: freeze (<−15° C.±5° C.) | fridge (5° C.±3° C.) | room temperature (20° C.±3° C.)
